Measurements reported in US10632149B2, “Drug based on maghemite for simultaneous reduction of gastrointestinal sodium resorption and phosphate resorption” (CHARITÉ-UNIVERSITAETSMEDIZIN BERLIN, priority 2014, dated 2020).

System: healthy rats
Conditions: rat, in vivo
Procedure: Male rats of the breed Sprague Dawley from Charles River were used at the beginning of the experiment with weight of 200 g (n=8) per group listed below. […] Then for another 4 weeks (week 2-5), the feed mentioned above ad libitum with active substance additive. On the last day of each experiment week, the animals were kept individually in a metabolic cage for 24 hours (day 6 to day 7). Feces and urine were collected. Blood was obtained only on the last collection day. Blood and urine samples were examined by Synlab GmbH.
The groups received as follows from week 2-5 additives per 100 g feed Group A control—no additives
Group B adjuvants—addition of 0.2 g of mannitol and each 0.9 g of inulin and gum arabic
Group D Velphoro®—based on iron as an additive to the feed 250 mg of iron
Group E Fosrenol®—based on lanthanum as an additive to the feed 250 mg lanthanum
Group F Renvela®—based on Sevelamer carbonate 500 mg

Feces excretion 24 hours Weight: 17.1 ± 6.2 g
Urine volumes 24 hours: 16.1 ± 3.6 mL
Substance: sucroferric oxyhydroxide [Velphoro®]
